Results from PubChem BioAssay (NCI).
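Dose response: 5 concentrations. Exposure: 48 h. Format: 96-well plates. Endpoint: linear interpolation; highest concentration if not reached. TGI marks complete inhibition of growth.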

Experiments:
Assay in all cases: NCI anticancer screen, dose series, 48 h
[1] = system: UACC-257 melanoma
[2] = system: KM12 colon
[3] = system: RXF 393 renal
[4] = system: M14 melanoma
[5] = system: HOP-92 NSCLC
[6] = system: NCI-H23 lung
[7] = system: A549 NSCLC
[8] = system: HOP-18 NSCLC
[9] = system: CAKI-1 renal
[10] = system: MALME-3M melanoma
[11] = system: HL-60(TB) leukemia
[12] = system: OVCAR-5 ovarian
[13] = system: SW-620 colon
[14] = system: SR leukemia
[15] = system: OVCAR-3 ovarian
[16] = system: UO-31 renal
[17] = system: SN12C renal
[18] = system: HOP-62 NSCLC
[19] = system: NCI-H460 lung
[20] = system: OVCAR-8 ovarian
[21] = system: HCT-15 colon
[22] = system: DMS 273 small cell lung
[23] = system: HCT-116 colon
[24] = system: SNB-75 CNS
[25] = system: NCI-H522 lung
[26] = system: SK-MEL-2 melanoma
[27] = system: XF 498 CNS
[28] = system: DLD-1 colon
[29] = system: NCI-H226 lung
[30] = system: SF-268 CNS
[31] = system: 786-0 renal
[32] = system: SK-MEL-5 melanoma
[33] = system: DMS 114 small cell lung
[34] = system: SK-MEL-28 melanoma
[35] = system: SF-539 CNS
[36] = system: HT29 colon
[37] = system: EKVX NSCLC
[38] = system: RPMI-8226 leukemia
[39] = system: U251 CNS
[40] = system: SF-295 CNS
[41] = system: COLO 205 colon
[42] = system: SK-OV-3 ovarian
[43] = system: A498 renal
[44] = system: HCC-2998 colon
[45] = system: TK-10 renal
[46] = system: KM20L2 colon
[47] = system: K-562 leukemia
[48] = system: UACC-62 melanoma
[49] = system: ACHN renal
[50] = system: SNB-19 CNS
[51] = system: MOLT-4 leukemia
[52] = system: LOX IMVI melanoma
[53] = system: LXFL 529 NSCLC
[54] = system: IGROV1 ovarian
[55] = system: CCRF-CEM leukemia
[56] = system: SNB-78 CNS
[57] = system: M19-MEL melanoma
[58] = system: OVCAR-4 ovarian
[59] = system: RXF-631 renal

## N#C/C(=C\c1ccc(O)c(O)c1)C(N)=S
[1]
  TGI: 97.7 µM
[2]
  TGI: > 100 µM
[3]
  TGI: > 89.7 µM
[4]
  TGI: > 100 µM
[5]
  TGI: > 100 µM
[6]
  TGI: > 100 µM
[7]
  TGI: > 100 µM
[8]
  TGI: > 100 µM
[9]
  TGI: > 100 µM
[10]
  TGI: > 100 µM
[11]
  TGI: > 20 µM
[12]
  TGI: > 100 µM
[13]
  TGI: > 100 µM
[14]
  TGI: > 100 µM
[15]
  TGI: > 100 µM
[16]
  TGI: > 100 µM
[17]
  TGI: > 100 µM
[18]
  TGI: > 100 µM
[19]
  TGI: > 100 µM
[20]
  TGI: > 100 µM
[21]
  TGI: > 100 µM
[22]
  TGI: > 100 µM
[23]
  TGI: > 100 µM
[24]
  TGI: > 100 µM
[25]
  TGI: 75.9 µM
[26]
  TGI: > 100 µM
[27]
  TGI: > 100 µM
[28]
  TGI: > 100 µM
[29]
  TGI: > 100 µM
[30]
  TGI: > 100 µM
[31]
  TGI: > 100 µM
[32]
  TGI: > 100 µM
[33]
  TGI: > 100 µM
[34]
  TGI: > 100 µM
[35]
  TGI: > 100 µM
[36]
  TGI: > 100 µM
[37]
  TGI: > 100 µM
[38]
  TGI: > 100 µM
[39]
  TGI: > 100 µM
[40]
  TGI: > 100 µM
[41]
  TGI: > 100 µM
[42]
  TGI: > 100 µM
[43]
  TGI: > 100 µM
[44]
  TGI: > 100 µM
[45]
  TGI: > 100 µM
[46]
  TGI: > 100 µM
[47]
  TGI: > 100 µM
[48]
  TGI: > 100 µM
[49]
  TGI: > 100 µM
[50]
  TGI: > 100 µM
[51]
  TGI: > 100 µM
[52]
  TGI: > 100 µM
[53]
  TGI: > 100 µM
[54]
  TGI: > 100 µM
[55]
  TGI: > 55.3 µM
[56]
  TGI: > 100 µM
[57]
  TGI: > 100 µM
[58]
  TGI: > 100 µM

## C[C@H](OCc1ccccc1)C(=O)N1CCS(=O)(=O)N2CCC[C@H]2C1=O
[1]
  TGI: > 100 µM
[2]
  TGI: > 100 µM
[3]
  TGI: > 100 µM
[4]
  TGI: > 100 µM
[5]
  TGI: > 100 µM
[6]
  TGI: > 100 µM
[7]
  TGI: > 100 µM
[8]
  TGI: > 100 µM
[9]
  TGI: > 100 µM
[10]
  TGI: > 100 µM
[11]
  TGI: > 100 µM
[12]
  TGI: > 100 µM
[13]
  TGI: > 100 µM
[14]
  TGI: > 100 µM
[15]
  TGI: > 100 µM
[16]
  TGI: > 100 µM
[17]
  TGI: > 100 µM
[18]
  TGI: > 100 µM
[19]
  TGI: > 100 µM
[20]
  TGI: > 100 µM
[21]
  TGI: > 100 µM
[23]
  TGI: > 100 µM
[24]
  TGI: > 100 µM
[25]
  TGI: > 100 µM
[28]
  TGI: > 100 µM
[29]
  TGI: > 100 µM
[30]
  TGI: > 100 µM
[31]
  TGI: > 100 µM
[32]
  TGI: > 100 µM
[33]
  TGI: > 100 µM
[34]
  TGI: > 100 µM
[35]
  TGI: > 100 µM
[36]
  TGI: > 100 µM
[37]
  TGI: > 100 µM
[38]
  TGI: > 100 µM
[39]
  TGI: > 100 µM
[40]
  TGI: > 100 µM
[41]
  TGI: > 100 µM
[42]
  TGI: > 100 µM
[43]
  TGI: > 100 µM
[44]
  TGI: > 100 µM
[45]
  TGI: > 100 µM
[46]
  TGI: > 100 µM
[47]
  TGI: > 100 µM
[48]
  TGI: > 100 µM
[49]
  TGI: > 100 µM
[50]
  TGI: > 100 µM
[51]
  TGI: > 100 µM
[52]
  TGI: > 100 µM
[53]
  TGI: > 100 µM
[54]
  TGI: > 100 µM
[55]
  TGI: > 100 µM
[59]
  TGI: > 100 µM
[56]
  TGI: > 100 µM
[57]
  TGI: > 100 µM
[58]
  TGI: > 100 µM
